Experimental data as given in ChEMBL document CHEMBL1154663, “Synthesis, crystallization, and biological evaluation of an orally active prodrug of gemcitabine” (J Med Chem, 2009).

Assays:
[1] = Stability in CD1 mouse small intestine homogenate assessed as hydrolysis rate minute at 96 uM; format: ADME, tissue-based; settings: tissue homogenate
[2] = Stability in human small intestine homogenate assessed as hydrolysis rate at 96 uM; format: ADME, tissue-based; settings: tissue homogenate
[3] = Stability in CD1 mouse small intestine homogenate assessed as hydrolysis rate after 30 mins at 96 uM; format: ADME, tissue-based; settings: read-out: Activity
[4] = Stability in human small intestine homogenate assessed as hydrolysis rate after 30 mins at 96 uM; format: ADME, tissue-based; settings: read-out: Activity
[5] = Stability in human Caco-2 cell homogenate assessed as half life; format: ADME, Colon
Blood = test: Drug level in CD1 mouse portal blood assessed as gemcitabine level at 14.3 mg/kg, po after 5 mins; format: ADME, organism-based; set-up: dose 14.3 mg/kg, route oral; settings: in vivo
HCT-116 [6] = test: Antitumor activity in human HCT116 cells xenografted CD1 mouse assessed as maximum tumor reduction at 160 mg/kg, ip administered as total 4 doses for every 3 days measured after 6 weeks; format: functional; set-up: scale not given: the % may be the effect or the level left; settings: route intraperitoneal
[7] = Chemical stability in buffer solution assessed as hydrolysis at pH 1 after 4 hrs at 40 degC; format: physicochemical; settings: read-out: solubility
[8] = Chemical stability in buffer solution assessed as hydrolysis at pH 2 after 4 hrs at 40 degC; format: physicochemical; settings: read-out: solubility
[9] = Chemical stability in buffer solution assessed as hydrolysis at pH 4 after 4 hrs at 40 degC; format: physicochemical; settings: read-out: solubility
[10] = Chemical stability in buffer solution assessed as hydrolysis at pH 6 after 4 hrs at 40 degC; format: physicochemical; settings: read-out: solubility
[11] = Chemical stability in buffer solution assessed as hydrolysis at pH 8 after 4 hrs at 40 degC; format: physicochemical; settings: read-out: solubility
[12] = Solubility in buffer solution at pH 1 after 4 hrs at 40 degC; format: physicochemical; settings: pH 1, 4 h
[13] = Solubility in buffer solution at pH 2 after 4 hrs at 40 degC; format: physicochemical; settings: pH 2, 4 h
[14] = Solubility in buffer solution at pH 4 after 4 hrs at 40 degC; format: physicochemical; settings: pH 4, 4 h
[15] = Solubility in buffer solution at pH 6 after 4 hrs at 40 degC; format: physicochemical; settings: pH 6, 4 h
[16] = Solubility in buffer solution at pH 8 after 4 hrs at 40 degC; format: physicochemical; settings: pH 8, 4 h
[17] = Stability in human liver S9 fraction assessed as hydrolysis rate at 100 uM; format: ADME, subcellular; settings: s9, 100 µM
[18] = Drug level in CD1 mouse portal blood at 14.3 mg/kg, po after 5 mins; format: ADME, organism-based; set-up: dose 14.3 mg/kg, route oral; settings: read-out: Drug uptake
Mus musculus [19] = test: Gemcitabine AUC in CD1 mouse at 14.3 mg/kg, po; format: ADME, organism-based; set-up: dose 14.3 mg/kg, route oral; settings: in vivo
Mus musculus [20] = test: Gemcitabine Cmax in CD1 mouse at 14.3 mg/kg, po; format: ADME, organism-based; set-up: dose 14.3 mg/kg, route oral; settings: in vivo
[21] = AUC in po dosed CD1 mouse; format: ADME, organism-based; settings: plasma
[22] = Cmax in po dosed CD1 mouse; format: ADME, organism-based; set-up: route oral; settings: in vivo
[23] = Tmax in po dosed CD1 mouse; format: ADME, organism-based; settings: in vivo
HCT-116 [24] = test: Antitumor activity in human HCT116 cells xenografted CD1 mouse assessed as maximum tumor reduction at 3.77 mg/kg, po administered daily for 14 days measured after 6 weeks; format: functional; set-up: scale not given: the % may be the effect or the level left
HCT-116 [25] = test: Antitumor activity in human HCT116 cells xenografted CD1 mouse assessed as maximum tumor reduction at 7.55 mg/kg, po administered daily for 14 days measured after 6 weeks; format: functional; set-up: scale not given: the % may be the effect or the level left
[26] = Stability in CD1 mouse liver S9 fraction assessed as hydrolysis rate at 100 uM; format: ADME, subcellular; settings: s9, 100 µM

Compound `CC[C@H](C)[C@H](N)C(=O)OC[C@H]1O[C@@H](n2ccc(N)nc2=O)C(F)(F)[C@@H]1O` has an Activity [1] of 2.3 nmol/mg/min, an Activity [2] of 3.7 nmol/mg/min and a metabolised at 0.5 h, 96 µM [3] of 100%. The metabolised at 0.5 h, 96 µM [4] was 100% and the half-life [5] was 75 min.

`Cl.Nc1ccn([C@@H]2O[C@H](CO)[C@@H](O)C2(F)F)c(=O)n1` [GEMCITABINE HYDROCHLORIDE] showed a Drug uptake (Blood) of 99 ng/mL and an Activity (HCT-116 [6]) of 71.5%.

With `CCCC(CCC)C(=O)Nc1ccn([C@@H]2O[C@H](CO)[C@@H](O)C2(F)F)c(=O)n1` [LY-2334737] the degraded at 4 h [7] was 21%, the degraded at 4 h [8] was 12% and the degraded at 4 h [9] was 2%. The degraded at 4 h [10] was 0%, the degraded at 4 h [11] was 0% and the solubility [12] was 1.12%. For the same compound, the solubility [13] was 1.79%, the solubility [14] was greater than 2% and the solubility [15] was greater than 2%. For the same compound, the Activity [16] was greater than 2%, the Activity [1] was less than 0.01 nmol/mg/min and the Activity [2] was less than 0.01 nmol/mg/min. It also gave a metabolised at 0.5 h, 96 µM [3] of 1%, a metabolised at 0.5 h, 96 µM [4] of 1% and an Activity [17] of 27 pmol/min/mg. The concentration at 5 min [18] was 653 ng/mL, the AUC (Mus musculus [19]) was 778 ng·h/mL and the Cmax (Mus musculus [20]) was 373 ng/mL. The AUC [21] was 536 ng·h/mL, the Cmax [22] was 535 ng/mL and the Tmax [23] was 30 min. The Activity (HCT-116 [24]) was 56.3%, the Activity (HCT-116 [25]) was 67.1% and the Activity [26] was 11 pmol/mg/min.
